Source: US9808469B2, “Antitumor activity of multi-kinase inhibitors in triple negative breast cancer” (ENTRECHEM, S.L, priority 2014, dated 2017)
Like-named read-outs stand apart in the source and are kept apart here.

Tests used:
MDA-MB-231 cells [1] = assay: MTT metabolization, inhibition of MDA-MB-231 cell proliferation; assay type: cell-based; conditions: Homo sapiens, read-out: Percentage inhibition Formula (III) mean
Description: These triple negative breast cancer cell lines were obtained from the American Type Culture Collection Cell Biology Collection (ATCC) (Manassas, Va.). The medium was changed every 2 days.
Cell proliferation and growth experiments were carried out using 3-(4,5-dimethylthiazol-2-yl)-2,5-diphenyltetrazolium bromide (MTT) uptake assays, where MTT is reduced to purple formazan by the mitochondria of living cells. Increase in cell number is detected by augmented MTT metabolization, and decrease in cell number is reflected by a decrease. […] The cells were treated with the drug at different concentrations to plot the dose-response curves in all cancer cell lines using in the study. […] After treatment, each well was replaced with 250 μL of fresh medium containing MTT ([…]) and incubated for 1 hour. The medium was then removed and 500 μL of dimethyl sulfoxide was added to each well. The plate was agitated in the dark for 5 minutes to dissolve the MTT-formazan crystals. The absorbance of the samples was recorded at 562 nm in a multi-well plate reader (BMG labtech). Results were plotted as the mean values of quadruplicates from a representative experiment that was repeated at least two independent times.
Combination index values less than 1 indicate synergism, values equal to 1 indicate an additive effect, whereas values greater than 1 indicate antagonism. Combination index values from three independent experiments were generated.

[2] = tested on: HS578T, BT549 and MDA-MB-231 cells; assay: Three-dimensional growth in matrigel (spherical structures); assay type: cell-based
Description: For three-dimensional cell culture, the bottom of 24 multi-dish plates was covered with a thin ice-cold 4% Matrigel (BD Biosciences) layer and incubated at 37° C. for 20 minutes to allow the Matrigel to solidify. Matrigel was added to conventional DMEM. The desired cells were tripsinized (0.25% trypsin-EDTA solution (2.5 g/L of trypsin, 0.38 g/L of EDTA) collected and resuspended to a final concentration of 12.500 cls/mL in 2% Matrigel. The cell suspension was added over the solidified Matrigel layer and incubated at 37° C. The medium was changed after 4 days and the cell culture was daily visualized under a microscope for phenotype monitoring. The cells were cultured for 10 days.

BT549 cells = assay: Cell cycle analysis by flow cytometry (propidium iodide); assay type: cell-based; conditions: 500 nM, 24 h
Description: (§1) Cell cycle analyses and evaluation of apoptosis were performed by flow cytometry using propidium iodide and Annexin V, respectively.
(§2) For cell cycle analyses, HS578T, BT549 and MDA-MB-231 cells were cultured in 100-mm culture dishes, grown to 70% confluence, and treated with 500 nM Formula (III) for 24 h. Cell monolayers were then incubated in trypsin-EDTA and resuspended in 1 mL of PBS. After three washes with PBS, the cell pellets were resuspended in ice cold 70% ethanol for 2 min and centrifuged 5 min at 1800 rpm. The cell pellets were treated with 1 mL of propidium iodide (PI) staining solution (PBS containing 50 μg/mL of PI, 0.5% Tween 20, 0.1 μg/mL RNase A) (BD Biosciences) and incubated in the dark for 1 h. DNA content and cell cycle analyses were performed by using a FACS canto II flow cytometer and the CellQuest software (BD Biosciences).

HS578T cells [3] = assay: as above; assay type: cell-based; conditions: 500 nM, 24 h
Description: as §1, §2

MDA-MB-231 cells [4] = assay: as above; assay type: cell-based; conditions: 500 nM, 24 h
Description: as §1, §2

HS578T cells [5] = assay: Western Blot of DNA damage and cell cycle markers; assay type: cell-based; conditions: 500 nM, up to 24 h
Description: Western-blot and phospho-array kits were used for evaluation of signaling intermediates.
HS578T and BT549 cell lines were grown in DMEM 10% of FBS and at 70% confluence were treated with Formula (III) at 500 nM for 6, 12 and 24 hours. Cells were washed with phosphate-buffered saline (PBS) (137 mM NaCl, 2.7 mM KCl, 8 mM Na2HPO4, 1.5 mM KH2PO4) and lysed in ice-cold lysis buffer (20 mM Tris-HCl [pH 7.0], 140 mM NaCl, 50 mM EDTA, 10% glycerol, 1% Nonidet P-40, 1 μM pepstatin, 1 μg/mL aprotinin, 1 μg/mL leupeptin, 1 mM phenylmethyl sulfonyl fluoride, 1 mM sodium orthovanadate). Lysates were centrifuged at 10000 g at 4° C. for 10 minutes. The protein level in the supernatants was quantified using BCA protein assay (Sigma Aldrich). A total of 50 μg of protein of each sample was used for analysis. Samples were then boiled in electrophoresis sample buffer and placed on 6%-15% sodium dodecyl sulfate-polyacrylamide gel electrophoresis (SDS-PAGE) gels, depending on the molecular weight of the proteins to be analyzed. Briefly, after electrophoresis, proteins in gels were transferred to polyvinylidene difluoride membranes (Millipore Corporation). Membranes were blocked in Tris-buffered saline with Tween (TBST) (100 mM Tris [pH 7.5], 150 mM NaCl, 0.05% Tween 20) containing 1% of bovine serum albumin for 1 h and then incubated overnight with the corresponding antibody. Anti-pS473-AKT and anti-pT308-AKT were purchased from Santa Cruz; Anti-pS6, anti-pSTAT3 and anti-GADPH were purchased from Cell Signalling Technology; Anti-pH3, were purchased from Millipore-Cell Signaling; anti-p-H2AX were purchased from BD Biosciences. After washing with TBST, membranes were incubated with HRP-conjugated anti-mouse or anti-rabbit secondary antibodies (1:5000 dilution) for 1 hour and bands were visualized by using ECL Plus Western Blotting Detection System (GE Healthcare, Buckinghamshire, United Kingdom).

[6] = tested on: tyrosine and serine/threonine kinases; assay: Biochemical kinase assays
animal models = assay: Studies in animal models; conditions: in vivo

`C[C@]12O[C@H](C[C@@H](O)[C@H]1O)n1c3ccccc3c3c4c(c5c6ccccc6n2c5c31)C(=O)NC4=O` [Formula (III)] was tested, and the viability at 0.1 µM (MDA-MB-231 cells [1]; MDA-MB-231, Formula (III) 100 nM alone (Table 4)) was 56.4%, the viability at 0.1 µM (MDA-MB-231 cells [1]; MDA-MB-231, Formula (III) 100 nM alone (Table 5)) was 62.5% and the viability at 0.12 µM (MDA-MB-231 cells [1]; MDA-MB-231, Formula (III) 120 nM alone (Table 2)) was 63.8%. For the same compound, the viability at 0.12 µM (MDA-MB-231 cells [1]; MDA-MB-231, Formula (III) 120 nM alone) was 63.8%, the viability at 0.18 µM (MDA-MB-231 cells [1]; MDA-MB-231, Formula (III) 180 nM alone (Table 2)) was 49.8% and the viability at 0.18 µM (MDA-MB-231 cells [1]; MDA-MB-231, Formula (III) 180 nM alone) was 49.8%. For the same compound, the viability at 0.2 µM (MDA-MB-231 cells [1]; MDA-MB-231, Formula (III) 200 nM alone (Table 3)) was 60.3%, the viability at 0.2 µM (MDA-MB-231 cells [1]; MDA-MB-231, Formula (III) 200 nM alone (Table 4)) was 56.4% and the viability at 0.2 µM (MDA-MB-231 cells [1]; MDA-MB-231, Formula (III) 200 nM alone (Table 5)) was 46.9%. The viability at 0.24 µM (MDA-MB-231 cells [1]; MDA-MB-231, Formula (III) 240 nM alone (Table 2)) was 38.2%, the viability at 0.24 µM (MDA-MB-231 cells [1]; MDA-MB-231, Formula (III) 240 nM alone) was 38.2% and the viability at 0.26 µM (MDA-MB-231 cells [1]; MDA-MB-231, Formula (III) 260 nM alone (Table 3)) was 54.5%. For the same compound, the viability at 0.3 µM (MDA-MB-231 cells [1]; MDA-MB-231, Formula (III) 300 nM alone (Table 2)) was 28.1%, the viability at 0.3 µM (MDA-MB-231 cells [1]; MDA-MB-231, Formula (III) 300 nM alone (Table 3)) was 49.4% and the viability at 0.3 µM (MDA-MB-231 cells [1]; MDA-MB-231, Formula (III) 300 nM alone (Table 4)) was 40.2%. For the same compound, the viability at 0.3 µM (MDA-MB-231 cells [1]; MDA-MB-231, Formula (III) 300 nM alone (Table 5)) was 40.5%, the viability at 0.3 µM (MDA-MB-231 cells [1]; MDA-MB-231, Formula (III) 300 nM alone) was 28.1% and the viability at 0.38 µM (MDA-MB-231 cells [1]; MDA-MB-231, Formula (III) 380 nM alone (Table 3)) was 36.9%. The viability at 0.4 µM (MDA-MB-231 cells [1]; MDA-MB-231, Formula (III) 400 nM alone (Table 4)) was 35.3%, the viability at 0.4 µM (MDA-MB-231 cells [1]; MDA-MB-231, Formula (III) 400 nM alone (Table 5)) was 33.7% and the “diameter of spherical structures in matrigel” value [2] was “strongly decreased the diameter of these spheres”. The “increase of cells in G2/M phase” value (BT549 cells) was 22%, the “increase of cells in G2/M phase” value (HS578T cells [3]) was 15% and the “increase of cells in G2/M phase” value (MDA-MB-231 cells [4]) was 18%. For the same compound, the “Cyclin B and p-Cdc2 levels” value (HS578T cells [5]) was “increase”, the “cyclin D and Cyclin A levels” value (HS578T cells [5]) was “down-regulated” and the “phosphorylated levels of γH2AX” value (HS578T cells [5]) was “increase in the phosphorylated levels of γH2AX in a time dependent manner”. The “phosphorylation of p53 and chk2” value (HS578T cells [5]) was “induced the phosphorylation of p53 and chk2”, the “concentration range of kinase affinity and inhibition” value [6] was “nanomolar and subnanomolar range” and the “toxicities in animal models” value (animal models) was “no evidence of toxicities”.
